Source: the METLIN SMRT retention time set (Domingo-Almenara et al. 2019)

Test: gradient 5% acetonitrile 3 min, to 50% in 2 min, to 85% in 15 min, held 3 min, 100 µL/min
Details: column: Zorbax Extend-C18 2.1 x 50 mm; eluents: water / acetonitrile, 0.1% formic acid
Summary of the method: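 Values are retention times taken from adduct peaks that software picked and an analyst inspected. The pure standards were run as mixtures of ~100 molecules on HPLC linked to a quadrupole time-of-flight mass spectrometer, in positive and negative ionization mode. A Zorbax Extend-C18 column (2.1 × 50 mm, 1.8 μm) was used at 100 μL/min with water and acetonitrile, each including 0.1% formic acid.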

RP-LC retention time [s]	SMILES
803	O=C(Nc1ccc(F)cc1)C1CCCN(c2ncnc3c2nc2n3CCCCC2)C1 (stereo not drawn)
841	CCNC(=O)c1cc(N2CCCC2)nc2ccccc12
946	CC1(C(=O)NC2CCCCCC2)CN(S(C)(=O)=O)CC(=O)N1Cc1ccc(Cl)cc1 (stereo not drawn)
1010	CCCOc1nc2ccccc2nc1N1CCCC(C(=O)NC2CC2)C1 (stereo not drawn)
1110	CC1=NS(=O)(=O)N(Cc2ccccc2)C=C1C(=O)OCc1nc(-c2ccc(C)cc2)no1
1020	O=C(N1CCC(Cc2nc(-c3ccc(F)cc3)no2)CC1)C1(c2ccccc2)CC1
723	Cc1cc(N2CCOCC2)nc(N2CCN(C(=O)c3ccc(C(C)(C)C)cc3)CC2)n1
992	Cc1ccc(N(C)C(=O)C2CCCN(S(=O)(=O)c3cc(-c4noc(C)n4)cs3)C2)cc1 (stereo not drawn)
1060	COc1ccc(S(=O)(=O)N2CCC(CCOc3ccccc3F)C2)cc1 (stereo not drawn)
623	Cc1ccc(-c2ccc(N3CCCC(C(=O)N4CCN(C(C)C)CC4)C3)nn2)cc1C (stereo not drawn)
953	Cc1cc(C)cc(C(=O)N2CCC(COc3ccc(C(=O)NC(C)C)cc3)CC2)c1
721	CCn1cnc(S(=O)(=O)N2CCC(C(=O)Nc3cccc(C)c3C)CC2)c1
744	O=C(CN1C(=O)c2ccccc2C1=O)NCCS(=O)(=O)N1CCc2ccccc2C1
729	O=C(c1cc(S(=O)(=O)N2CCCC(C(=O)N3CCCCCC3)C2)c[nH]1)N1CCCC1 (stereo not drawn)
724	CCn1cnc(S(=O)(=O)N2CCC(C(=O)Nc3cccc(-c4ccno4)c3)CC2)c1
770	O=C(NCc1csc(-c2cccs2)n1)C1CCN(C(=O)COc2ccccc2)CC1
585	COc1ccc(C(=O)N2CCc3nc(CNC(=O)C4CCC4)n(C)c3C2)cn1
896	COc1ccc(C)cc1NC(=O)Cn1nc2c(Oc3ccccc3C)nccn2c1=O
578	CCOC(=O)C1=C(CN(C)Cc2ccccc2)NC(=O)NC1c1ccc(OC)cc1 (stereo not drawn)
706	COc1cccc(CNC(=O)N2CCCC2c2cc(C)no2)c1 (stereo not drawn)
781	CCOC(=O)c1cccc(NS(=O)(=O)c2cc(-c3c(C)noc3NC(C)=O)ccc2OC)c1
1070	Cn1c(=O)n(CC(=O)NC2CCCCC2)c(=O)c2cnc(-c3ccc(Cl)cc3)nc21
1050	O=C(C1CCN(S(=O)(=O)c2ccc(-c3noc(/C=C/c4cccs4)n3)cc2)CC1)N1CCCC1
833	CC(=O)N1CCc2ccccc2C1C(=O)NCc1ccc(C)c(C)c1 (stereo not drawn)

RP-LC retention time [s]	SMILES
788	Cc1cc(C)c(C(=O)N2CCCC(C(=O)NCCC(C)C)C2)[nH]1 (stereo not drawn)
752	COc1cccc(C(=O)N2CCC3(CC2)NC(=O)c2ccc(F)cc2N3C)c1
805	Cc1nnc2ccc(-c3noc(Cc4ccc(F)cc4)n3)cn12
953	CCc1noc(NC(C)=O)c1-c1ccc(C)c(S(=O)(=O)N2CCCc3ccccc32)c1
1280	Cc1ccc(-c2noc(Cn3ncn4nc(-c5ccc(Br)cc5)cc4c3=O)n2)cc1
708	COc1ccc(-c2c(C)noc2NC(C)=O)cc1S(=O)(=O)Nc1cccc(C#N)c1
923	Cc1ccc(CNC(=O)c2cnc(-c3ccc(C)cc3)nc2-c2ccncc2)cc1
956	Cc1cc(Cl)ccc1OCc1nc(-c2ccc3c(c2)ncn3CCC(=O)N2CCCCC2)no1
788	Cc1cccc(Cl)c1S(=O)(=O)Nc1ccc2c(c1)CCC(=O)N2C
615	CC1CCN(CCCNC(=O)C(=O)Nc2ccc3nc4n(c(=O)c3c2)CCCCC4)CC1
658	CCc1nccn1Cc1noc(-c2cccc(C)c2)n1
723	CCOC(=O)Cc1ccc(NC(=O)Nc2cccn3c(C)nnc23)cc1
982	COc1cc(OC)c(NC(=O)c2[nH]c(C)c(S(=O)(=O)N3CCCC3)c2C)cc1Cl
1230	Cc1nc(-c2cccc(-c3noc(-c4cncc(Br)c4)n3)c2)cs1
838	CCOc1ccc(C(=O)N2C[C@H](c3nc(-c4ccncc4)no3)[C@@H](C)C2)cc1
652	Cc1ccnc(NS(=O)(=O)c2ccc(N)cc2)n1
833	CCOC(=O)c1ccc(NC(=O)c2ccc(S(=O)(=O)N(C)C)cc2)cc1
672	CCc1cccc(C)c1NC(=O)Cn1cnc2nc(N3CCCC(C(=O)NC)C3)sc2c1=O (stereo not drawn)
816	CCN1C(=O)c2cccnc2Sc2cc(NC(=O)C3CCCC3)ccc21
1120	Cc1ccc(N2CCN(S(=O)(=O)c3ccc(-c4nnc(C5CCC5)o4)o3)CC2)cc1
599	COc1ccc(-c2csc(CN3CCN(C(=O)C4CC4)CC3)n2)cc1
873	Cc1sc(NC(=O)COc2ccc(Cl)cc2)nc1-c1ccc2c(c1)NC(=O)CO2
620	Nc1cc(C2CCN(C(=O)c3cncc(Br)c3)CC2)no1
1030	CCc1noc(C2(NC(=O)c3ccc(F)c(Cl)c3)CCCCC2)n1

More lines, now with the values behind:

SMILES	RP-LC retention time [s]
Cc1csc(COc2ccc(C(=O)Nc3ccccc3OC(F)(F)F)cc2)n1	933
Cc1nnc(-c2cn(CC(=O)Nc3cccc(Br)c3)c3ccccc23)o1	893
CN(C)CCNC(=O)C1CCc2sc(C(=O)N3CCCC3)cc2C1 (stereo not drawn)	660
CC1CCCN(CC2CCN(S(=O)(=O)c3cc(F)cc(F)c3)CC2)C1 (stereo not drawn)	681
COc1cccc(C(=O)N2C[C@@H]3C[C@H](NC(=O)c4cccs4)[C@H]2C3)c1OC	679
CCCCCCNC(=O)C1CCN(C(=O)C(C)(C)C)CC1	804
CCCn1cc(CCNC(=O)Nc2ccc(C)c(Cl)c2)c2cccnc21	884
NC(=O)Cn1cnc2c(-c3ccc(F)cc3)nsc2c1=O	713
CCN1CCN(CCCNC(=O)c2ccc3nc(C(C)C)oc3c2)CC1	667
CN1CCCCCCN(C(=O)Nc2ccc3c(c2)OCCO3)CCC1=O	745
CC(C)CN1C(=O)c2ccccc2C(C(=O)NCc2ccccn2)C1c1cccs1 (stereo not drawn)	632
Cn1c(Cn2c(=O)sc3ccccc32)nnc1SCC(=O)NCC1CCCO1 (stereo not drawn)	608
COc1ccc(NC(=O)Nc2nc(CCC(=O)O)cs2)cc1	647
O=C(Cn1nc2c(cc1=O)CCCCC2)Nc1cccc(N2CCCCS2(=O)=O)c1	762
CCCCNC(=O)CCCn1c(=O)c2cccn2c2ccccc21	780
CCCCN1C(=O)C(NC(=O)c2cccc(OC)c2)(C(F)(F)F)C(C(C)=O)=C1C (stereo not drawn)	916
COc1ccc(C(O)CN2CCN(c3cccc(C)c3)CC2)cc1 (stereo not drawn)	671
COc1ccccc1NC(=O)C12CCC(C)(C(=O)C1)C2(C)C (stereo not drawn)	848
Cc1ccc(NC(=O)Cn2c(=O)n(-c3ccc(F)cc3)c(=O)c3c2cc(C)n3C)cc1F	882
CCOC(=O)c1[nH]c(C)c(CCC(=O)N2CCC(C(=O)NC3CCCCC3)CC2)c1C	778

SMILES	RP-LC retention time [s]
Cc1ccn2c(NC(=O)CCc3ccccc3)c(-c3ccccc3)nc2c1	642
CCc1nc2cccnc2n1CCN1CCN(C(=O)Nc2ccc3c(c2)OCCO3)CC1	590
COCCN1C(=O)c2ccccc2C(C(=O)NCc2cccc(F)c2)C12CCCC2 (stereo not drawn)	866
COc1cc(OC)cc(C(=O)N2C[C@@H]3C[C@H](NC(=O)c4ccccc4)[C@H]2C3)c1	684
O=C(NCc1ccccc1)NCC1Cn2cccc2C(=O)N1Cc1ccccc1 (stereo not drawn)	782
C[C@@H]1OC(Oc2ccccc2-c2cc(=O)c3c(O)cc(O)c([C@@H]4O[C@H](CO)[C@@H](O)[C@H](O)[C@H]4O)c3o2)[C@H](O)[C@H](O)[C@H]1O (stereo partly drawn)	622
CCCCCOc1ccc(C(=O)N(Cc2ccc(C)o2)C2CCS(=O)(=O)C2)cc1 (stereo not drawn)	1110
C=CCNC(=O)c1nc(C(=O)N2CCc3ccccc3C2)cs1	811
Cc1cc(C)cc(C(=O)NCc2[nH]nc3ccccc23)c1	814
COc1ccccc1CCC(=O)N(C)C[C@@]12CCC[C@H]1N(C)C(=O)CC2	776
CCOC(=O)c1[nH]c(C)c(CCC(=O)N2CCC(C(=O)NCCCN3CCCC3=O)CC2)c1C	626
CC(C)CN1CCCCc2cc(C(=O)NC(C)(C)C)sc21	1270
Cc1ccc(N2CCC(NC(=O)C(C)(C)C)C2=O)cc1C (stereo not drawn)	802
Cc1nnc([C@@H]2CC(F)(F)CN2C(=O)Cc2c[nH]c3ccccc23)o1	723
COC(=O)c1cnc(N2CCN(c3ccccc3OC)CC2)c2ccccc12	1030
CCCC(=O)Nc1nc2ccc(CCC(=O)Nc3ccc(CC)cc3)cc2s1	952
CCOc1ccc(-c2cc3c(=O)n(CC(O)c4ccc(C(C)C)cc4)ccn3n2)cc1 (stereo not drawn)	1120
CN1C(=O)CCC2(CNC(=O)c3n[nH]c(=O)c4ccccc34)CCC=C12 (stereo not drawn)	669
O=C(Nc1ccccc1C(F)(F)F)N1CCC(N2CCN(Cc3cccc(F)c3)C(=O)C2=O)CC1	829
CCOC(=O)C1CCN(C(=O)C2CCN(c3cncnc3N3CCCCC3)CC2)CC1	651
